Experimental data taken from US20190127775A1 (priority 2016, published 2019).

Tests used:
[1] = system: methicillin resistant Staphylococcus aureus (MRSA; ATCC # 43300); experiment: Whole cell anti-MRSA growth inhibition screen (OD590) of Un-Met and Pre-Met library plates; assay type: cell-based
Protocol: Next, a copy of the library in its un-metabolized form and a copy of the library in its pre-metabolized form were created. The buffer used for library metabolism was (4×=4 times the concentration of each component in the final solution): 4× KPMEN Buffer: 200 mM KH2PO4; 4 mM K2EDTA; 20 mM glucose-6-phosphate, disodium salt (G6P); 4 mM NADPH, tetrasodium salt; pH adjusted to 7.4 with 1 M KOH. To each well in 1 set of the Reconstituted Copy Plates was added 45 μL 1.1× KEPNM Buffer to give 1 set of unmetabolized (“Un-Met”) Library Plates. […] Both sets of plates were incubated at room temperature for 24 hours with gentle rocking to provide 1 set of Un-Met Library Plates and 1 set of Pre-Met Library Plates. […]
Antibacterial activity screening was performed using methicillin resistant Staphylococcus aureus (MRSA; ATCC # 43300). […] The optical density of each well was then read at 590 nm (0D590) using a TECAN SpectraFluor Plus microtiter plate reader (Artisan Technology Group, Champaign, Ill.). These plates were also read prior to addition of bacteria to identify wells with compounds with a high OD590, so that these well could be examined manually for turbidity post bacterial growth, since a high prior OD590 would interfere with post bacterial growth OD590 measurement. […]

[2] = un-metabolized parent; only active after metabolic conversion into sulfanilamide; cited from earlier work

SMILES	anti-MRSA activity in the Pre-Met plates ([1]; Pre-Met plates (human liver microsomes), cutoff OD590 0.18, 24 hours 35° C.)	anti-MRSA activity in the Un-Met plates ([1]; Un-Met plates, cutoff OD590 0.15, 24 hours 35° C.)	antibacterial activity in vitro [2]
COc1ccc2c(c1)[C@]13CCCC[C@@H]1[C@H](C2)N(C)CC3 [dextromethorphan]	not in the Pre-Met plates	had anti-MRSA activity	–
Nc1ccc(/N=N/c2ccc(S(N)(=O)=O)cc2)c(N)c1 [protosil, prontosil]	–	–	inactive in vitro
